Patent US20260257992A1, “AGONISTS OF SMALL HETERODIMER PARTNER FOR CANCER THERAPY” (THE BOARD OF TRUSTEES OF THE UNIVERSITY OF ILLINOIS, priority 2023, published 2026)
pIC50: −log10 of the molar value.

How the values were obtained:
NR0B2 [1] = target: T1, NR0B2 (Homo sapiens, UniProt Q15466); test: ABCA1 reporter screen to identify NR0B2 agonists (HepG2); type: cell-based; design: key: ✓: using strict cutoffs with respect to DSHN for passing each metric; X: using strict cutoffs with respect to DSHN for passing each metric; conditions: HepG2, 50 μM test compound, 1 μM GW3965; pass/fail with respect to DSHN
T1 construct: a reporter assay which makes use of the endogenous cholesterol homeostatic feedback loop; endogenous in cells; host or cells: HepG2
T1 sequence (Q15466 1-257): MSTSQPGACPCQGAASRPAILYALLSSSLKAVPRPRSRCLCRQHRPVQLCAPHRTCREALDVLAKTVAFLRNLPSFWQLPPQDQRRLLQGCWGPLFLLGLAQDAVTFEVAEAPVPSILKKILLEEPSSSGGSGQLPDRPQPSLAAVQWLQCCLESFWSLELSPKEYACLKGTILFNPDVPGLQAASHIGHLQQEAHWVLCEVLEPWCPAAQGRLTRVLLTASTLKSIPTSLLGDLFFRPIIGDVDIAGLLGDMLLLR
Text: (§1) Development of a more efficacious NR0B2 agonist. While DSHN was a useful proof-of-concept small molecule, macrophages required high doses and chronic exposure for robust influences on subsequent Tregs expansion. […] Therefore, we synthesized several derivatives of DSHN and screened them using a reporter assay which makes use of the endogenous cholesterol homeostatic feedback loop, where FXR activation upregulates NR0B2, which then inhibits LXR and its normal induction of ABCA1. We then followed this screen with several others with stringent cutoffs: effect on endogenous ABCA1 and IL1β expression, reduction of Treg expansion in either macrophage or DC co-cultures, and low cellular toxicity (FIG. 5A, Table 4).
Screening to identify NR0B2 agonists. HepG2 cells were co-transfected with ABCA1 renilla reporter plasmid and TK-control firefly luciferase vector at 20:1 using Lipofectamine 3000 reagent according to manufacturer's instructions for 24 hrs. Afterwards, 7000 cells were seeded in to 384 well f-bottom, white plates (Greiner Bio-One). Test compounds were added to the plates in a final working volume of 30 μL (for a final concentration of 50 μM) in presence of DMSO or 1 μM GW3965 and incubated for 20-24 hrs at 37° C. Luciferase activity was measured using the Luc-Pair Duo-Luciferase HT Assay kit (GeneCopoeia, Rockville, MD, USA) by adding luciferase substrates sequentially following manufacturer instructions. Luminescence was measured with 2 s integration times in a microplate reader (BioTek Cytation 5), 15 min after adding each substrate. The addition of reagents to the microplates was timed at each step to match the reading time delays and reading sequence of the microplate reader.

[2] = Low cellular toxicity screen; type: cell-based; design: key: ✓: using strict cutoffs with respect to DSHN for passing each metric; X: using strict cutoffs with respect to DSHN for passing each metric; conditions: pass/fail with respect to DSHN
Text: as §1
Resazurin cell viability assay. 20,000 cells were seeded into 96 well f-bottom, black plates (Corning Costar) and cell viability was measured using 100 μL resazurin per well at 0.3 mg/mL (Acros Organics). The fluorescence signal was quantified by plate reader (560 nm excitation/590 nm emission) at 2-3 h.

NR0B2 [3] = target: T2, NR0B2 (Mus musculus, UniProt Q62227); test: Attenuation of GW3965 (LXR agonist) induction of ABCA1 mRNA in BMDMs; type: cell-based
T2 construct: Dose response assay in BMDMs pre-treated with increasing doses of DSHN-OMe and then treated with 1 μM GW3965, using ABCA1 mRNA as an endpoint; endogenous in cells; host or cells: mouse bone marrow derived macrophages (BMDMs)
T2 sequence (Q62227 1-260): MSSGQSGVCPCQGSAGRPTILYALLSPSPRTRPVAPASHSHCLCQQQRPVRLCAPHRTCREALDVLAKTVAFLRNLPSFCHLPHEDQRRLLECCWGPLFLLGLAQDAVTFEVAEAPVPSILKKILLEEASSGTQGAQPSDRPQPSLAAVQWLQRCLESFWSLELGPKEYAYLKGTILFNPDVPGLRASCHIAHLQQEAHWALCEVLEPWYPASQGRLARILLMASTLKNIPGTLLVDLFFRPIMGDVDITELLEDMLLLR
Description: FIG. 5A-5D. DSHN-OMe, an NR0B2 small molecule ligand with increased potency in terms of reducing Treg expansion and strong efficacy against metastatic mammary tumors. (A) DSHN-OMe effectively reduces induction of LXR target gene ABCA1 by GW3965. Different letters denote statistical difference between GW3965 treated groups (N=3-4/group, 1-way ANOVA followed by Šidák test). (B) Dose response assay in BMDMs pre-treated with increasing doses of DSHN-OMe and then treated with 1 μM GW3965, using ABCA1 mRNA as an endpoint. Data was normalized to 0.01 μM DSHN-OMe (0%) and GW3965 alone (100%). DSHN (100 μM) is indicated for comparison (bar at end of graph). […] (C) Thermal shift assay using a recombinant protein presence of a fluorescent dye. Plot of raw data is above plot of first derivative. (D) DSHN-OMe is ineffective at regulating ABCA1 when NR0B2 is knocked down with siRNA in BMDMs.
The TM for apo/unliganded was 46.74±0.22, DSHN-OMe at 46.92±0.17 and DSHN at 46.34±0.51° C. (FIG. 5C).

Treg expansion = Treg expansion with PBMC-derived DCs of healthy volunteers; type: cell-based, human; conditions: cells from healthy volunteers

Compound | ABCA1 reporter screen (NR0B2 [1]) | Low Toxicity [2] | pIC50 (NR0B2 [3]; BMDMs pre-treated with compound, then 1 μM GW3965, 4 parameter variable slope fit, read-out: IC50, ABCA1 mRNA as endpoint) | LXR induction of ABCA1 (NR0B2 [3]; BMDMs, GW3965) | Attenuation of ABCA1 induction with NR0B2 knockdown (NR0B2 [3]; BMDMs, NR0B2 siRNA, GW3965) | Treg expansion, human PBMC-derived DCs (Treg expansion)
CCN(CC)S(=O)(=O)c1cccc2cc(C(=O)OC)c(O)cc12 [DSHN-OMe, Methyl 5-(N,N-diethylsulfamoyl)-3-hydroxy-2-naphthoate] | ✓ | ✓ | 5.42 | reducing LXR induction of ABCA1 in a dose-related manner | lost when NR0B2 was knocked down in BMDMs | –
CCN(CC)S(=O)(=O)c1cccc2cc(C(=O)O)c(O)cc12 [DSHN, reference compound] | – | – | – | – | – | decreased Treg expansion
